Data set [1] concerns sandwich-cultured rat hepatocytes (SCRH). As to conditions: 10-min incubation; digoxin 1 µM, nitrofurantoin 5 µM.
For data set [2], the target named is T1, Bcrp (Rattus norvegicus, UniProt Q80W57).
T1 sequence (Q80W57 1-657): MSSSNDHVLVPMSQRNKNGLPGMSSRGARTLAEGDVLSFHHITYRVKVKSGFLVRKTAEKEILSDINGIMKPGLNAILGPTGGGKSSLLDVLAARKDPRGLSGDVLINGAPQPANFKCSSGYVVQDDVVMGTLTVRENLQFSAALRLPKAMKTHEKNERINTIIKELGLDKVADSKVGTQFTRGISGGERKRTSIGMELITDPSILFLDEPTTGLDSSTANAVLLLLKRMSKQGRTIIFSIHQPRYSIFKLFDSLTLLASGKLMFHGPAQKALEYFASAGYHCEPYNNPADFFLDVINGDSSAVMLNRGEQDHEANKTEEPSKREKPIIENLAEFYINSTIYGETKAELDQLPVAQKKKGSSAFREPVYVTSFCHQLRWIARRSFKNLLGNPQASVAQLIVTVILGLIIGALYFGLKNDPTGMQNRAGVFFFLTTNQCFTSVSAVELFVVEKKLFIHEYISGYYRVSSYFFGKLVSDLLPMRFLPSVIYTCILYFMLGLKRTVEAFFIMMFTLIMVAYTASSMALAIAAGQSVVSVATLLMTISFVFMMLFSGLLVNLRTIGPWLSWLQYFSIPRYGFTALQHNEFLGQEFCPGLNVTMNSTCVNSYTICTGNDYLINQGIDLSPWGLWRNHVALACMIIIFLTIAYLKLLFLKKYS
The experiment in a line: Biliary excretion. As to conditions: 10 min; for Nitrofurantoin BEI, % of control (Ad-siNT) / Nitrofurantoin in vitro Clbiliary, % of control (Ad-siNT): 5 µM nitrofurantoin. In kind it is in vitro ADME.

The test system of the next data set is P-gp. As to conditions: 2 µM GF120918, SCRH; cited from earlier work.
Data set [3] addresses T1, Bcrp. The data set can be described thus: GF120918 inhibition of nitrofurantoin biliary excretion in SCRH.
The subject of the next data set is Caco-2 cells. As to conditions: 10 µM FTC; cited from earlier work.
The test system of data set [4] is BCRP. The following applies: read-out: Ki or IC50 values for BCRP; cited from earlier work.
The subject of data set [5] is Bcrp. As to conditions: cited from earlier work.
[6] abbreviates: 2 µM GF120918, 5 µM nitrofurantoin, 10 min, day 4 SCRH.
Setting [7] is: 2 µM GF120918, 5 µM nitrofurantoin, 10 min, day 4 SCRH, data not shown.
Where [8] appears, read: day 4 Ad-si01Bcrp-infected SCRH.
Setting [9] is: day 6 Ad-si01Bcrp-infected SCRH.

A word on the IC50: it is the concentration that gives 50% inhibition.

“Also recorded” adds a separate entry of the source.

For `C[C@H]1O[C@@H](O[C@H]2[C@@H](O)C[C@H](O[C@H]3[C@@H](O)C[C@H](O[C@H]4CC[C@@]5(C)[C@H](CC[C@@H]6[C@@H]5C[C@@H](O)[C@]5(C)[C@@H](C7=CC(=O)OC7)CC[C@]65O)C4)O[C@@H]3C)O[C@@H]2C)C[C@H](O)[C@@H]1O` [digoxin], the “Accumulation in cells + BC and cells, day 6 versus day 4 SCRH” value in data set [1] was “lower”. Moreover, the “Effect of Bcrp knockdown on digoxin accumulation (cells + BC or cells), BEI or in vitro Clbiliary” value on Bcrp [2] (Ad-si01Bcrp-infected day 4 or day 6 SCRH, 1 µM digoxin) is reported as “unaffected; also recorded: did not affect”.

Take `COc1cc2c(cc1OC)CN(CCc1ccc(NC(=O)c3cccc4c(=O)c5cccc(OC)c5[nH]c34)cc1)CC2` [GF120918, N-(4-[2-(1,2,3,4-tetrahydro-6,7-dimethoxy-2-isoquinolinyl)ethyl]-phenyl)-9,10-dihydro-5-methoxy-9-oxo-4-acridine carboxamide]: in the data set on P-gp, the “P-gp-mediated biliary excretion of digoxin, % of control” value is reported as ~ 25 % of control. Further, on Bcrp [3] (setting [6]), the “Effect on cellular accumulation of nitrofurantoin” value was “significantly increased” and the “Effect on nitrofurantoin accumulation in cells + BC” value is “did not affect”. At Bcrp [3] (setting [7]), the “Nitrofurantoin BEI in presence of inhibitor, % of control” value was ~ 8 % of control and the “Nitrofurantoin in vitro Clbiliary in presence of inhibitor, % of control” value is recorded as ~ 8 % of control. Besides, at Bcrp [3] (2 µM GF120918, SCRH), the “Inhibition of nitrofurantoin biliary excretion” value is “almost completely inhibited”.

Consider `COc1ccc2c3c([nH]c2c1)[C@H](C=C(C)C)N1C(=O)[C@@H]2CCCN2C(=O)[C@@H]1C3` [FTC, fumitremorgin C], for which, in the data set on Caco-2 cells, the “Effect on digoxin transport in Caco-2 cells” value is “inhibited”. In the data set on BCRP [4], the IC50 was 300 to 1300 nM.

As for `O=C1CN(/N=C/c2ccc([N+](=O)[O-])o2)C(=O)N1` [nitrofurantoin], the “Nitrofurantoin biliary excretion in Abcg2-knockout mice” value in the data set on Bcrp [5] was “almost completely abolished”. Also, the “Nitrofurantoin accumulation in cells + BC versus control (Ad-siNT)” value on Bcrp [2] (Ad-si01Bcrp-infected SCRH, 5 µM) is reported as “similar”. Besides, the “Cellular accumulation of nitrofurantoin versus control (Ad-siNT)” value at Bcrp [2] (Ad-si01Bcrp-infected day 4 and day 6 SCRH, 5 µM) was “increased markedly; also recorded: significantly increased”. Besides, at Bcrp [2] (setting [8]), the “Nitrofurantoin BEI, % of control (Ad-siNT)” value was ~ 24 % of control and the “Nitrofurantoin in vitro Clbiliary, % of control (Ad-siNT)” value is ~ 27 % of control. Besides, at Bcrp [2] (setting [9]), the “Nitrofurantoin BEI, % of control (Ad-siNT)” value is on record as 11 % of control and the “Nitrofurantoin in vitro Clbiliary, % of control (Ad-siNT)” value is 14 % of control.

The values are drawn from paper PMC3135650 (Molecular pharmaceutics, 2009).
